pIC50: −log10 of the molar value.
Columns and labels:
[1] = molecular target: type A influenza virion-associated RNA polymerase (Influenza A virus (A/nt/60/1968(H3N2)), UniProt P03432); experiment: Inhibition of type A influenza virion-associated RNA polymerase; type: biochemical, Influenza A2 Aichi virus; settings: mean of two experiments
Experimental: (§1) Polymerases, nucleic acid template nucleoside triphosphates, of which guanosine triphosphate is tritium-labelled, salt and buffer are mixed at 0° C. in a total volume of 125 μl (for herpes DNA polymerase, see F. below). The concentrations of the nucleoside triphosphates UTP (uridine triphosphate), CTP (cytidinetriphosphate), GTP (guanosinetriphosphate) and ATP (adenosinetriphosphate) were generall 400, 400, 400, and 2000 μM, respectively. The test compound is also added in various concentrations to the mixture obtained. A standard mixture without test compound is also prepared using the same amounts of the ingredients. The enzyme reaction, i.e. synthesis of nucleic acid, is started by incubating the mixture at 37° C. For influenza RNA polymerases the temperature is 33° C. The reaction is allowed to proceed for 60 minutes in the assay of influenza and Micrococcus polymerases. For E.coli DNA dependent RNA polymerase the time is 20 min. and for herpes DNA polymerase 30 minutes. The incubation time for calf thymus polymerases is 10 minutes. The incorporation of labelled monomer into trichloroacetic acid insoluble nucleic acid product was measured in the following way. Before and after the incubation period 50 μl are withdrawn from the mixture and applied to filter discs. These are put in 5% trichloroacetic acid solution and washed several times. After drying the discs are measured for radioactivity in a liquid scintillation counter. The difference in radioactivity between samples with and without added compound is used to calculate the inhibition of the polymerase activity. The inhibition is expressed as percentage inhibition using the radioactivity of the standard sample as basis.
A. Inhibition by phosphonoformic acid of type A influenza virion associated RNA polymerase
Influenza A2 Aichi virus was purified according to the method of Pons and Hirst, Virology 34 385 (1968). The assay mixture is described by Bishop, Obijeski and Simpson, J. Virol. 8 66 (1971).

[2] = molecular target: calf thymus DNA dependent RNA polymerase fraction A (DCA) (Bos taurus, UniProt A6QLS0+E1BIX2); experiment: Inhibition of calf thymus DNA dependent RNA polymerase fraction A; type: biochemical
Experimental: as §1, with “For E.coli DNA dependent RNA polymerase the time is 20 min. and for herpes DNA polymerase 30 minutes. The incubation time for calf thymus polymerases is 10 minutes.” left out, “Before and after the incubation period 50 μl are withdrawn from the mixture and applied to filter discs. These are put in 5% trichloroacetic acid solution and washed several times.” left out, “basis. […]” for “basis.”

[3] = molecular target: Micrococcus luteus DNA dependent DNA polymerase (Micrococcus luteus, UniProt C5CBM1); experiment: Inhibition of Micrococcus luteus DNA dependent DNA polymerase; type: biochemical
Experimental: as §1, with “For E.coli DNA dependent RNA polymerase the time is 20 min. and for herpes DNA polymerase 30 minutes. The incubation time for calf thymus polymerases is 10 minutes.” left out, “Before and after the incubation period 50 μl are withdrawn from the mixture and applied to filter discs. These are put in 5% trichloroacetic acid solution and washed several times.” left out, “basis. […]” for “basis.”

influenza virus (WSN) = experiment: Influenza virus (WSN) plaque assay on MDCK monolayers; type: cell-based, influenza (WSN Wilson Smith Neurotropic type A); settings: unidentified influenza virus, read-out: Inhibition of plaque
[4] = molecular target: T1, reverse transcriptase from BaEV (Baboon endogenous virus, UniProt P10272); experiment: Cell-free reverse transcriptase inhibition, BaEV; type: biochemical; settings: template/primer (rA)n.(dT)10, read-out: Percent inhibition
T1 construct: Reverse transcriptase from various retroviruses have been tested in cell-free assays
Experimental: Reverse transcriptase from various retroviruses have been tested in cell-free assays for inhibition by phosphonoformic acid and phosphonoacetic acid. The assay conditions have been described by Collaborative Research, Inc, 1365 Main Street, Waltham, Mass., USA "Assay kit for mammalian viral reverse transcriptase". BLV and VV were prepared in this laboratory and all other viruses and viral enzyme were obtained from Dr. K Nilsson, Department of Pathology, University of Uppsala and from Boehringer Mannheim, Germany. Phosphonoformic acid (PFA) and phosphonoacetic acid (PAA) were added at pH 7.2 to the reaction mixtures at the start of the reaction.
Rauscher murine leukemia virus; RMuLV, visna virus; VV, avian myeloblastosis virus; AMV, bovine leukemia virus; BLV, baboon endogenous virus; BaEV, simian sarcoma virus; SSV.

[5] = molecular target: HTLV-III reverse transcriptase (Human immunodeficiency virus type 1 group M subtype B, UniProt P03366); experiment: HTLV-III reverse transcriptase assay; type: biochemical
Experimental: The purified enzyme was stored in 50 mM Tris-HCl (pH 7.5), 1 mM dithiothreitol (DTT), 0.01% Triton X-100 and 20% glycerol. Reverse transcriptase assays were carried out in a reaction mixture (50 μl) containing 50 mM Tris-HCl (pH 7.5), 5 mM DTT, 100 mM potassium chloride, 0.01% Triton X-100 or NP40, 10 μg/ml (dT)15.(A)n as template primer and /^3 H/deoxythymidine triphosphate (/^3 H/-dTTP). The reaction mixture was incubated for 1 hour at 37° and the reaction was stopped by the addition of 50 μg of yeast tRNA and 2 ml of 10% solution of trichloroacetic acid (TCA) containing 1 mM sodium pyrophosphate. The samples were filtered on millipore filters (0.45 μm), washed first with 5% TCA solution (5 times) and then with 2 ml of 70% ethanol. The filters were dried under a heat lamp, scintillation fluid was added and the radioactivity counted in a β-scintillation counter.
The effect of foscarnet on purified HTLV-III reverse transcriptase (RT) was assayed as a function of drug concentration.

Acute toxicity in mice = experiment: Acute toxicity in mice; parameters: species or system male mice of NMRI strain; settings: mouse, in vivo, ip, as sodium salt, male NMRI mice
Experimental: Phosphonoformic acid was tested for acute toxicity in mice. The compound (as its sodium salt) was given as solution i.p. in doses of 250, 500, 1000, 2000 and 4000 μmol/kg. Groups of 4 male mice of NMRI strain weighing 18.5-20.5 g were used for each dose.

Chain of type A influenza virion-associated RNA polymerase (Influenza A virus (A/nt/60/1968(H3N2)), UniProt P03432) (P03432 whole entry, looked up): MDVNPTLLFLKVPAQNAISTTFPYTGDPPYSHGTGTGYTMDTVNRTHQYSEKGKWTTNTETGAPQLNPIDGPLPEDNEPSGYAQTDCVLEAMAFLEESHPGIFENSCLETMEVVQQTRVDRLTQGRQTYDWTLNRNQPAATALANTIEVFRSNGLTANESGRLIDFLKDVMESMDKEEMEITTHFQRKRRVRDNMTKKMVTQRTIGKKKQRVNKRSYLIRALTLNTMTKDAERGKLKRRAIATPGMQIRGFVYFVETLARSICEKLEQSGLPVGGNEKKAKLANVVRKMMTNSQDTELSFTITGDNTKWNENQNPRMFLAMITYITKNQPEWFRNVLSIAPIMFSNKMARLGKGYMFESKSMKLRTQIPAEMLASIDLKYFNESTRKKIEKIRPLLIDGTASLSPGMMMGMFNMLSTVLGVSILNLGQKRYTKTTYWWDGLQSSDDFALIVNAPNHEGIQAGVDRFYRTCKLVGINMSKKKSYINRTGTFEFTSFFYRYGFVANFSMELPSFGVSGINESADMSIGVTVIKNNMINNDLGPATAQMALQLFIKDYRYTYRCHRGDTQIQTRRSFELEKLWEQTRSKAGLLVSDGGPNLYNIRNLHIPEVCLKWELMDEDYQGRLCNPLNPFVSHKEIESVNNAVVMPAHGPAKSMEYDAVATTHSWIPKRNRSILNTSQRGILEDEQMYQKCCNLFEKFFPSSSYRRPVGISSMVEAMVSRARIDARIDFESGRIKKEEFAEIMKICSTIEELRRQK
T1 sequence (P10272 659-1335): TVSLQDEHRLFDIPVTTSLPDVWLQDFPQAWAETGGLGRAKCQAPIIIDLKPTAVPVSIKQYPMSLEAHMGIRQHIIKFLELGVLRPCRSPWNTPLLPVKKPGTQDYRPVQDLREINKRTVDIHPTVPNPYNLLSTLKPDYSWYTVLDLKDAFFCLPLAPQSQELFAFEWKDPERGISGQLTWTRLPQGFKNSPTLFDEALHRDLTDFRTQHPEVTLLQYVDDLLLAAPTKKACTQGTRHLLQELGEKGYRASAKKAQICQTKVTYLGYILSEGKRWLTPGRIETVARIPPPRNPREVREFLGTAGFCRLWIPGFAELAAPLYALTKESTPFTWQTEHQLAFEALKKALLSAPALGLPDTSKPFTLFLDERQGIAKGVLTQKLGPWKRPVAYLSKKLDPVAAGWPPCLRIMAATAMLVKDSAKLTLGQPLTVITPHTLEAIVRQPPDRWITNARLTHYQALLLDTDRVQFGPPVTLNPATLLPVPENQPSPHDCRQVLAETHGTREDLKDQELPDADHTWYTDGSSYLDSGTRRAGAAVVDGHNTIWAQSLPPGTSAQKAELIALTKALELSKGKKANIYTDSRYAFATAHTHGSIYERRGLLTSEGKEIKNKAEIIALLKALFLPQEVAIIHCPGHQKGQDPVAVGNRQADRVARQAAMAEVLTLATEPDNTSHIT
Chain of Micrococcus luteus DNA dependent DNA polymerase (C5CBM1 entry or part of it): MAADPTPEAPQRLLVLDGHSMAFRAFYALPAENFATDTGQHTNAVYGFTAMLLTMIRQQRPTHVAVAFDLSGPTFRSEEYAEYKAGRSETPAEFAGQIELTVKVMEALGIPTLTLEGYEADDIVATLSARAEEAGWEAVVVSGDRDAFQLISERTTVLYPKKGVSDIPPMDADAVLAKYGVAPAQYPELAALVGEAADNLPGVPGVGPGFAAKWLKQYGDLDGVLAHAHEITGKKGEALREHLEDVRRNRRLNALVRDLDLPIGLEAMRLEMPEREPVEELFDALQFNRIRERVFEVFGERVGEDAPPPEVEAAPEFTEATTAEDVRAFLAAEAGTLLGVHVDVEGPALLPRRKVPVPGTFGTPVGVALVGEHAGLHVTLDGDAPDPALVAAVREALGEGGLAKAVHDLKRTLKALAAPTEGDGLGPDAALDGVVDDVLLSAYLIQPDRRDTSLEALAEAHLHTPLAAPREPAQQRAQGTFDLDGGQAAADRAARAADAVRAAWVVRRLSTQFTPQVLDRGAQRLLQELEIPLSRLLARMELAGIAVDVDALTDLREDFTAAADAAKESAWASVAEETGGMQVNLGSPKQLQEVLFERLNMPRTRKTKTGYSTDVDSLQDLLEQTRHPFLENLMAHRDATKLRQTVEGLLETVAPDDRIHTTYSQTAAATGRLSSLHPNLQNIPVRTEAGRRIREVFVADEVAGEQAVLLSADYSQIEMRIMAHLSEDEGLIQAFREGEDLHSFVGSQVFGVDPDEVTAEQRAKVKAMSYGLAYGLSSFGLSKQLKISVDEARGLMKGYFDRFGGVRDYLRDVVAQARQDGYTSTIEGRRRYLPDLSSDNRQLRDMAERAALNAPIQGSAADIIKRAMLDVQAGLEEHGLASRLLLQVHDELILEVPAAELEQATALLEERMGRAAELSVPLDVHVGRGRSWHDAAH

SMILES: O=C(O)P(=O)(O)O [phosphonoformic acid]
- inhibition at 0.1 µM ([1]; 0.1 μM): 21%
- inhibition at 0.5 µM ([1]; 0.50 μM): > 50%
- inhibition at 1 µM ([1]; 1.00 μM): 79%
- inhibition at 10 µM ([1]; 10 μM): 91%
- inhibition at 100 µM ([1]; 100 μM): 95%
- inhibition at 500 µM ([1]; 500 μM): 93%
- inhibition at 500 µM [2]: -3%
- inhibition at 500 µM [3]: 6%
- inhibition at 100 µM (influenza virus (WSN)): 10%
- inhibition at 250 µM (influenza virus (WSN)): 50%
- inhibition at 500 µM (influenza virus (WSN)): 95%
- inhibition at 10 µM ([4]; 10 μM): 96%
- inhibition at 100 µM ([4]; 100 μM): > 99%
- inhibition at 500 µM ([4]; 500 μM): > 99%
- pIC50 ([5]; purified enzyme from different virus isolates, (dT)15.(A)n template primer, read-out: concentration causing 50% inhibition of HTLV-III reverse transcriptase activity): 5.70 to 7.00
- type of inhibition of reverse transcriptase ([5]; with respect to substrate and template): noncompetitive with respect to substrate and uncompetitive with respect to template
- LD50 (Acute toxicity in mice): 2000 to 4000 µmol/kg
